Entries after “also recorded” stand apart in the source; their conditions may differ. Like-named read-outs stand apart in the source and are kept apart here.
Tests used:
[1] = test system: patients with leukemia and lung cancer; settings: cited from earlier work
[2] = test system: EGFR and ERK phosphorylation in PC9GR, HCC827 T790M and HCC4006 T790M cells; experiment: Western blotting of signaling changes after 4 h drug treatment; assay type: cell-based, human
Experimental: Signaling changes were evaluated by western blotting after 4 h treatment. […] In (E and G), equal protein loading was confirmed by β-actin evaluation.
Immunoprecipitation and protein expression analysis
Whole cell lysates were prepared using ice-cold TNN-HS buffer (50 mM HEPES, pH 8.0, 150
protease inhibitor cocktail). Total cellular proteins were quantified using the Bio-Rad protein
assay. For immunoprecipitation, 600 μg of total protein was incubated with 6 μL of mouse
Biotechnology (Santa Cruz, CA) as the control overnight at 4°C with rotation and then incubated
with protein G-agarose beads (Roche, Indianapolis, IN) for 3 hours at 4°C. Beads were washed
five times with TNN-HS buffer, and immunoprecipitated proteins were eluted from beads with
30 μL of 2X SDS-PAGE sample buffer from Bio-Rad (Hercules, CA) at 95°C for 5 minutes.
pThr202/Tyr204-p44/42 MAPK, AKT, pSer473-AKT, and tSRC from Cell Signaling; GRB2,

EGFR L858R = molecular target: T1, EGFR L858R (Homo sapiens, UniProt P00533, L858R); experiment: In vitro kinase inhibition assay (Millipore KinaseProfiler); assay type: biochemical; settings: activating point mutation L858R; 0.0001 to 1 μM vs DMSO
T1 construct: purchased Merck Millipore (KinaseProfiler service)
Experimental: (§1) In vitro kinase inhibition assays were performed on the Millipore KinaseProfiler™ platform.
(§2) In vitro kinase assays were conducted using Merck Millipore's KinaseProfiler service according to the protocols detailed at http://www.millipore.com/techpublications/tech1/pf3036.
(§3) Human Phospho-kinase array assay
(§4) PC9 and PC9GR cells were infected with lentivirus expressing shRNA against ARHG5 or scrambled shRNA as control for 48 hours. The relative levels of phosphorylation of 46 kinase phosphorylation sites determination was performed using Human Phospho-Kinase Array Kit (R&D Systems, Minneapolis, MN). Briefly, two-hundred micrograms of total cell lysate protein were incubated with Phospho-Kinase array membranes overnight at 4 C. Detection of proteins was accomplished using the Detection Antibody Cocktail and enhanced […]

EGFR wild type = EGFR wild type (Homo sapiens, UniProt P00533); experiment: as above; assay type: biochemical; settings: wild-type allele; 0.0001 to 1 μM vs DMSO
Experimental: as §1, §2, §3, §4

[3] = molecular target: T2, proteins in total cell lysates of PC9GR cells (Homo sapiens, UniProt P00533, DEL746-750/T790M); experiment: Midostaurin affinity chromatography (drug pulldown) with LC-MS/MS, PC9GR lysate; assay type: binding; settings: PC9GR lysate, E746-A750+T790M EGFR
T2 construct: endogenous in cells; host or cells: PC9GR
Experimental: (§5) LC-MS/MS analysis was performed in duplicate on a LTQ-Orbitrap MS (Thermo Fisher).
(§6) RNA isolated from PC9 and PC9GR cells were infected with either ARHG5 shRNA or scrambled shRNA and cDNA transcription using RNeasy Mini kit and QuantiTect Reverse Transcription kit from Qiagen (Valencia, CA). Human ARHG5 probe and human 18s rRNA endogenous control were purchased from Applied Biosystems (Foster City, CA). Quantitative real-time PCR reactions were run in triplicate on MicroAmp® Optical 96-well reaction plates with barcode using the 7900HT Fast real-time PCR system, and data were analyzed with 2.3 SDS software and normalized by 18s endogenous control. […]
(§7) aminomethylbenzoic acid in the presence of HATU and diisopropylethylamine and subsequent […]
(§8) on NHS-activated Sepharose 4 Fast Flow resin (GE Healthcare Bio-Sciences AB, Uppsala, […]
(§9) Affinity chromatography was performed as reported previously with total cell lysates of PC9 and PC9GR cells containing each 5.5 mg of protein.
(§10) Eluates were loaded on a SDS-PAGE gel, briefly run into the gel, and excised as a single piece before in-gel trypsin digestion and sample processing, which was done as described (Rix et al, LC-MS/MS analysis was performed in duplicate on a LTQ-Orbitrap MS (Thermo Fisher). […]
(§11) searching with the Mascot (Matrix Science) and Sequest (Thermo Fisher) search engines.
(§12) Kinase inhibition analysis […]

[4] = test system: proteins in total cell lysates of PC9GR cells; experiment: as above; assay type: binding, human; settings: PC9 and PC9GR lysates
Experimental: as §5, §6, §7, §8, §9, §10, §11, §12

[5] = molecular target: proteins in total cell lysates of PC9 cells (Homo sapiens, UniProt P00533, DEL746-750); experiment: Midostaurin affinity chromatography (drug pulldown) with LC-MS/MS, PC9 lysate; assay type: binding
Experimental: as §5, §6, §7, §8, §9, §10, §11, §12

PC9GR cells = test system: PC9GR cells
Experimental: (§13) The ON-TARGET plus Smart pool custom siRNA library included siRNA pools containing four different siRNAs. This custom library and the ON-TARGET plus Non-Targeting Pool, non-targeting siRNA #4, and GAPD control siRNA pool were purchased from Thermo Scientific (Dharmacon). siRNA was delivered in triplicate to each well using a Precision^TM microplate liquid handler (BioTek). Plates were incubated for 5 days for cell viability assay and for 48 h for the pERK and pAKT in-cell western analyses. […] Viability and signaling changes were determined for each target gene after normalization on ON-TARGET plus Non-Targeting pool control siRNA. […]
(§14) The cell viability assay (CellTiter-Glo) was conducted according to the recommendations for the CellTiter-Glo Luminescent Cell Viability Assay from Promega (Madison, WI). Cells were plated […]
(§15) and either transfected with siRNA or infected with […] of lentiviruses plus 6 µg/mL polybrene (Sigma) for 5 days. Cell-Titer Glo reagent was added to each well, and luminescence was recorded using Victor plate reader from PerkinElmer (Walthom, MA). […]

HCC827 cells = test system: HCC827 cells
Experimental: as §13, §14, §15

HCC4006ER cells = test system: HCC4006ER cells
Experimental: as §13, §14, §15

HCC4006 cells = test system: HCC4006 cells
Experimental: as §13, §14, §15

PC9 cells = test system: PC9 cells
Experimental: as §13, §14, §15

HCC827ER cells = test system: HCC827ER cells
Experimental: as §13, §14, §15

Molecule: C[C@]12O[C@H](C[C@]1(O)CO)n1c3ccccc3c3c4c(c5c6ccccc6n2c5c31)CNC4=O [CEP-701, lestaurtinib]
- tolerability ([1]; leukemia, ref Marshall et al, 2005): good tolerability
- effects on EGFR and downstream ERK phosphorylation [2]: little to modest effects; also recorded: reductions in ERK phosphorylation at concentrations below those necessary for inhibition of EGFR phosphorylation

Molecule: C#Cc1cccc(Nc2ncnc3cc(OCCOC)c(OCCOC)cc23)c1 [Erlotinib, erlotinib]
- effects on EGFR and downstream ERK phosphorylation [2]: modest effects

Molecule: CO[C@@H]1[C@H](N(C)C(=O)c2ccccc2)C[C@H]2O[C@]1(C)n1c3ccccc3c3c4c(c5c6ccccc6n2c5c31)C(=O)NC4 [Midostaurin, midostaurin]
- effect on EGFR kinase activity (EGFR L858R): no substantial effect
- effect on EGFR kinase activity (EGFR wild type): no substantial effect
- tolerability ([1]; patients with leukemia and lung cancer, ref Monnerat et al, 2004, Fischer et al, 2010): well tolerated
- EGFR binding to immobilized midostaurin [3]: EGFR bound to midostaurin
- protein kinases observed in total in midostaurin pulldown [4]: 71
- effects on EGFR and downstream ERK phosphorylation ([2]; western blotting after 4 h, three T790M EGFR cell lines): modest effects
- EGFR binding to immobilized midostaurin [5]: no EGFR associated with midostaurin

Molecule: TITIN
- PC9GR_Viability Viability % (PC9GR cells): 62.56%
- HCC827_Viability Viability % (HCC827 cells): 67.29%
- HCC4006ER_Viability Viability % (HCC4006ER cells): 71.94%
- HCC4006_Viability Viability % (HCC4006 cells): 63.88%
- PC9_Viability Viability % (PC9 cells): 69.56%
- HCC827ER_Viability Viability % (HCC827ER cells): 73.41%

— PMC4039310 (Molecular Systems Biology, 2013)
